Series [1] concerns HepG2. Briefly: Growth inhibition of human HepG2 cells at 100 uM after 24 hrs. Format: functional, cell-based.
Series [2] concerns HepG2. Briefly: Induction of apoptosis in human HepG2 cells assessed as early apoptotic cells at 80 uM after 24 hrs by Annexin-V/7AAD staining based flow cytometry (reference value: 5.1 to 12.5 %). Format: functional. A general note: A flow cytometer gives signals particle by particle.
The subject of series [3] is HepG2. Kind of series: Antimigratory activity in human HepG2 cells at 100 uM after 24 hrs by wound-scratch assay. It is filed as functional, cell-based.
Series [4] relates to HepG2. Briefly: Induction of apoptosis in human HepG2 cells assessed as late apoptotic cells at 80 uM after 24 hrs by Annexin-V/7AAD staining based flow cytometry (reference value: 0.2 to 0.4%). It is filed as functional.
Series [5] deals with HepG2. Kind of series: Induction of apoptosis in human HepG2 cells assessed as late apoptotic cells at 40 uM after 24 hrs by Annexin-V/7AAD staining based flow cytometry (reference value: 0.2 to 0.4%). It is filed as functional.
Series [6] relates to HepG2. Briefly: Induction of apoptosis in human HepG2 cells assessed as early apoptotic cells at 20 uM after 24 hrs by Annexin-V/7AAD staining based flow cytometry (reference value: 5.1 to 12.5 %). Format: functional.
For series [7], the system named is HepG2. Briefly: Induction of apoptosis in human HepG2 cells assessed as late apoptotic cells at 80 uM after 6 hrs by Annexin-V/7AAD staining based flow cytometry (reference value: 0.2 to 0.7 %). It is filed as functional.
For series [8], the system named is Jurkat. Kind of series: Cytotoxicity against human Jurkat cells assessed as reduction in cell viability after 24 hrs by WST1 assay. It is filed as functional, cell-based. (In general: Tetrazolium assays rely on reduction of a dye to a coloured formazan, in cell work by metabolically active cells.)
Series [9] deals with HepG2. Kind of series: Cytotoxicity against human HepG2 cells assessed as reduction in cell viability at 80 uM after 24 hrs by WST1 assay relative to control. It is filed as functional.
Series [10] deals with HepG2. Briefly: Induction of apoptosis in human HepG2 cells assessed as late apoptotic cells at 60 uM after 24 hrs by Annexin-V/7AAD staining based flow cytometry (reference value: 0.2 to 0.4%). Format: functional.
The subject of series [11] is HepG2. Briefly: Induction of apoptosis in human HepG2 cells assessed as late apoptotic cells at 80 uM after 2 hrs by Annexin-V/7AAD staining based flow cytometry (reference value: 0.2 to 0.7 %). It is filed as functional.
Series [12] deals with HepG2. Briefly: Induction of apoptosis in human HepG2 cells assessed as early apoptotic cells at 80 uM after 2 hrs by Annexin-V/7AAD staining based flow cytometry (reference value: 3.8 to 4.2 %). Format: functional.
Series [13] deals with HepG2. Kind of series: Induction of apoptosis in human HepG2 cells assessed as late apoptotic cells at 20 uM after 24 hrs by Annexin-V/7AAD staining based flow cytometry (reference value: 0.2 to 0.4%). Format: functional.
The subject of series [14] is HepG2. Briefly: Antimigratory activity in human HepG2 cells at 80 uM after 24 hrs by wound-scratch assay. It is filed as functional, cell-based.
For series [15], the system named is HepG2. Kind of series: Induction of apoptosis in human HepG2 cells assessed as early apoptotic cells at 80 uM after 6 hrs by Annexin-V/7AAD staining based flow cytometry (reference value: 3.8 to 4.2 %). Format: functional.
In series [16] the test system is HepG2. Briefly: Induction of apoptosis in human HepG2 cells assessed as early apoptotic cells at 40 uM after 24 hrs by Annexin-V/7AAD staining based flow cytometry (reference value: 5.1 to 12.5 %). It is filed as functional.
The test system of series [17] is PC-3. Kind of series: Cytotoxicity against human PC3 cells assessed as reduction in cell viability after 24 hrs by WST1 assay. It is filed as functional, cell-based. Particulars: for IC50: PC-3, 24 h.
Series [18] relates to HepG2. Kind of series: Induction of apoptosis in human HepG2 cells assessed as early apoptotic cells at 60 uM after 24 hrs by Annexin-V/7AAD staining based flow cytometry (reference value: 5.1 to 12.5 %). It is filed as functional.
The test system of series [19] is HepG2. Kind of series: Cytotoxicity against human HepG2 cells assessed as reduction in cell viability after 24 hrs by WST1 assay. It is filed as functional, cell-based. Particulars: for IC50: HepG2, 24 h.
Series [20] has as its system HepG2. Kind of series: Cytotoxicity against human HepG2 cells assessed as reduction in cell viability at 80 uM by WST1 assay. It is filed as functional, cell-based. Particulars: TDE = time-dependent effect.
Series [21] has as its system HepG2. Briefly: Cytotoxicity against human HepG2 cells assessed as reduction in cell viability at 80 uM after 8 hrs by WST1 assay relative to control. Format: functional.
In series [22] the test system is HepG2. Briefly: Cytotoxicity against human HepG2 cells assessed as reduction in cell viability at 80 uM after 4 hrs by WST1 assay relative to control. It is filed as functional.
Series [23] can be described thus: Cytotoxicity against BHK cells assessed as reduction in cell viability at 80 uM after 48 hrs by WST1 assay relative to control. Format: cell-based, Mesocricetus auratus. Particulars: hamster.
In series [24] the test system is HepG2. Briefly: Cytotoxicity against human HepG2 cells assessed as reduction in cell viability at 80 uM after 12 hrs by WST1 assay relative to control. It is filed as functional.
Series [25] deals with HepG2. Briefly: Cytotoxicity against human HepG2 cells assessed as reduction in cell viability at 40 uM after 24 hrs by WST1 assay. Format: functional, cell-based.

Eight compounds from ChEMBL document CHEMBL4184292, “Synthetic strigolactone analogues reveal anti-cancer activities on hepatocellular carcinoma cells” (Bioorg Med Chem Lett, 2018) can be followed below.

Activity calls are given as the source filed them. The rule behind the calls is not given here.

`CC1=CC(=O)C(C(C)C)=CC1=O` [THYMOQUINONE]: in [1], the “growth inhibition (GI)” value is “Active”. The Activity in series [2] is recorded as 91.8%; in series [4], 3.3%. The result in series [3] was Active.

For the compound `COC(=O)/C(=C/OC1C=C(C)C(=O)O1)c1ccccc1` (stereo not drawn), the Activity was 0.2% in series [5]; 9.5% in series [6]; 1.2% in [7]; “Dose-dependent effect” in series [8]; 63.4 - 73% in series [9]; 0.4% in series [10]. Also, the Activity in series [11] was 1.7%; in series [12] it was 3.8%; in [13], 0.2%; in [15] it was 13.3%; in series [16], 13.1%; in [17] it was “Dose-dependent effect”. In addition, the Activity is 26.6% in series [2]; 18.5% in series [18]; “Dose-dependent effect” in series [19]; “Tde” in series [20]; 20% in [21]; 0.2% in [4]. Moreover, the Activity was 13% in [22], 18% in series [23] and 31% in series [24]. Also, the half-inhibitory concentration (IC50) amounted to 46.4 µM in [8], 55.1 µM in series [17] and 63.5 µM in series [19]. Also, the outcome in series [14] was Active.

On to `COC(=O)/C(=C/OC1C=C(C)C(=O)O1)c1ccc(Cl)cc1` (stereo not drawn), for which the Activity in series [5] is 0.4%; in series [6], 9.5%; in [7] it was 1.5%; in series [8] it was “Dose-dependent effect”; in series [9], 61 - 61.4%; in series [10], 0.5%. Moreover, the Activity is 0.9% in [11]; 4.3% in [12]; 0.2% in series [13]; 13.7% in series [15]; 11.3% in series [16]; “Dose-dependent effect” in [17]. The Activity in series [2] is 20.9%; in [18], 16.1%; in series [19] it was “Dose-dependent effect”; in [20], “Tde”; in series [21], 19%; in series [4] it was 0.5%. For the same compound, the Activity in series [22] is 11%; in [23] it was 23%; in series [24], 26%. Also, the figures for the IC50 in series [8], in [17] and in series [19] were 44.7 µM, 56.6 µM and 67.8 µM, respectively. Moreover, the result in [14] and in series [25] was Active.

With `CC1=CC(Oc2ccc(F)cc2Br)OC1=O` (stereo not drawn), the Activity in [9] is listed as 39%. The IC50 in series [19] stood at 90.3 µM.

Consider `CC1=CC(Oc2cc(Cl)cc(Cl)c2)OC1=O` (stereo not drawn), for which the Activity in series [9] is 40.7%. Moreover, the IC50 in series [19] turned out to be 89.5 µM.

For the compound `CC1=CC(Oc2c(Br)cccc2C#N)OC1=O` (stereo not drawn), in series [9], the Activity was determined as 43.8%. In series [19], the concentration for half-maximal inhibition (IC50) is 87.6 µM.

With `CC1=CC(Oc2ccc(Cl)c(Cl)c2)OC1=O` (stereo not drawn), the Activity in series [9] is 43.5%. For the same compound, the IC50 in series [19] was found to be 85.9 µM. Further, the outcome in [25] was Active.

As to `COC(=O)/C(=C/OC1C=C(C)C(=O)O1)c1ccc(OC)cc1` (stereo not drawn), the Activity in series [9] was found to be 50.1%; in series [23] it was 33%. Further, the 50% inhibitory concentration (IC50) in series [19] was found to be 82.1 µM. Besides, the outcome in series [25] was Active.

A word on the IC50: it is the concentration that gives 50% inhibition.
